Measurements reported in US6624187B1, “Long wave length absorbing bacteriochlorin alkyl ether analogs” (Health Research, Inc., priority 2000, dated 2003).
“Also recorded” adds a separate entry of the source.

Columns and labels:
[1] = In vivo PDT efficacy of bacteriochlorin-N-hexylimide
Text: Compared to the anhydride ring system, compounds with fused imide ring system in other compounds have shown stability in vivo. For example, among non-porphyrin systems, amonafide, an imide derivative and its structural analogs are reported as anti-neoplastic agents in vitro as well as in vivo with good stability. While we could not know how this might apply to non-porphyrin systems, we investigated the effect of such cyclic structures in the bacteriochlorin system. Initially we followed our own methodology developed for the preparation of purpurin-18-N-alkylimides (U.S. Pat. No. 5,952,366 incorporated herein by reference). Unfortunately, that approach produced a complex reaction mixture. Thus, in a modified approach, bacteriopurpurin-a 2 was first reacted with an alkyl amine (e.g. n-hexyl amine). The formation of the intermediate amide was monitored by spectrophotometry and analytical thin layer chromatography. The intermediate amide analog 3, obtained as a mixture of two isomers, was reacted with diazomethane, and the solvent was removed under vacuum. The residue so obtained was re-dissolved in tetrahydrofuran, and solvent was evaporated. This procedure was repeated several times until the disappearance of the absorption at 765 nm and appearance of a new peak at 822 nm.

RIF tumor [2] = assay: In vivo photosensitizing efficacy of bacteriopurpurinimides against RIF tumor; conditions: for Tumor Response (%): Day 7-90
Protocol: The photosensitizers were dissolved in known quantity of Tween 80 (Aldrich) surfactant and diluted by a factor of 10 with 5% dextrose solution in water to produce a final Tween 80 concentration of 1%. The solution was then filtered through a syringe filter. The concentration of the solution was determined on the basis of the extinction coefficient value of the photosensitizer at the longest wavelength absorption.
Before injecting the drug to the animals, the purity of the material was confirmed by HPLC using a Spectra-Physics system connected to a SP8 700 solvent delivery system and Kratos 757 absorption detector with a fixed wavelength at 405 or 786 nm. Two solvent systems were used in the HPLC analysis: solvent A was prepared by dissolving anhydrous dibasic sodium phosphate (1.0 g) in 400 ml water. To this was added HPLC grade methanol (600 ml). The pH of the solution was adjusted to 7.5 with phosphoric acid; and solvent B was prepared by dissolving anhydrous dibasic sodium phosphate (0.3 g) in 100 ml water, to this was added methanol (900 ml), and the pH was adjusted to 7.5 with phosphoric acid. Solvents A and B were used as gradient mode (0-10 min A, 10-40 min A-B, 40-50 min B, 50-60 min back to A). In some cases solvent B was used as isocratic mode (column reverse phase C-8, flow rate 1.5 ml/min). Prior to irradiation, the fur over grown and surrounding the tumor was removed with electric clippers. Twenty four hours after injecting the drug, the mouse was placed in a custom made aluminum holder. Standard light dose 75 mW/cm^2 for 30 min for a total incident light dose of 135 J/cm^2 from a tunable dye laser tuned to the maximum red absorption peak at 790 nm (in vivo absorption, determined by in vivo reflectance spectroscopy). Laser output was measured with a power meter.
Following light exposure, the mice were kept in groups of 5/cage and supplied with pelleted food and water ad libitum. Tumor size and gross appearance of both tumor and overlying skin was monitored daily for 90 days after photo-illumination unless growth of non-responsive tumor require early sacrifice of those animals.
Bacteriopurpurin-imides 5-7 above have been evaluated for in vivo studies in a mouse tumor model system (RIF tumor). […] The mice were treated with light (790 nm, 135 J/cm^2) after 24 h post injection of the drug (80% tumor cure on day 21 and 60% on day 90). […] The efficacy of the drug was also determined at variable drug and light doses.

RIF tumor [3] = assay: Tumor uptake and in vivo absorption shift by in vivo reflectance spectroscopy; set-up: species or system mouse
Protocol: FIGS. 4A and 4B show curves of in vivo light wave absorption of compound 7 in RIF tumor at 24 hours and 5 days post injection.
The tumor uptake and in vivo shift in the long wavelength absorption of the bacteriopurpurin-imide 7 was determined by in vivo reflectance spectroscopy. […] Thus, the tumors were irradiated with light at that particular wavelength. […] In vivo studies with these and other bacteriochlorin analogs at variable treatment conditions are currently in progress.

mouse foot tissue = assay: Foot response phototoxicity in mouse foot tissue; assay type: in vivo; conditions: 0.47 mmol/kg I.V.; 135 J/cm^2 at 790 nm; feet illuminated 5 days after injection
Protocol: Since prolonged cutaneous photosensitivity is a serious side-effect of Photofrin® administration, we tested the phototoxicity of 3-deacetyl-3-(1-heptyloxyethyl) bacteriopurpurin-18-N-hexylimide 7 in mouse foot tissue and the therapeutic drug and light doses. Mice were injected (I.V.) with 0.47 mmol/kg of the drug. Feet were illuminated with 135 J/cm^2 at 790 nm laser light on days 1, 2, 3, 4 and 5 (FIG. 5). Foot response was graded according to the following arbitrary scale: 0, no difference from normal; 0.1, very slight edema; 0.3, slight edema; 0.5, moderate edema; 0.75, large edema; 1, large edema with exudate; 1.2, moderate reddening with slight scaly or crusty appearance; 1.65, slight damage to toes; 1.75, definite damage or slight fusion of toes; 2.0, most toes fused; 2.5, foot almost shapeless with no toes; 3, only stub of foot remaining.

[4] = injected dose 1.0 μmol/kg, light 790 nm 135J/cm^2 24 h post injection, C3H mice
[5] = injected dose 0.2 μmol/kg, light 790 nm 175J/cm^2 24 h post injection
[6] = injected dose 0.47 μmol/kg, light 790 nm 135J/cm^2 24 h post injection

Molecule: 3-Acetyl-bacteriopurpurin-18-N-hexylimide [Compound 4]
- in vivo PDT efficacy [1]: did not produce any significant in vivo PDT efficacy

Molecule: CCCCCCN1C(=O)c2c3nc(cc4[nH]c(cc5nc(cc6[nH]c2c(c6C)C1=O)[C@H](CC)[C@H]5C)c(C(C)O)c4C)[C@@H](C)[C@@H]3CCC(=O)OCCC (stereo partly shown) [Compound 5, 3-Deacetyl-3-(1-hydroxyethyl)bacteriopurrurin-18-N-hexylimide]
- Tumor Response (%) (RIF tumor [2]; [4]): did not produce any PDT efficacy; also recorded: NO RESPONSE

Molecule: C=Cc1c(C)c2cc3nc(c4c5[nH]c(cc6nc(cc1[nH]2)[C@H](C)[C@H]6CC)c(C)c5C(=O)N(CCCCCC)C4=O)[C@@H](CCC(=O)OCCC)[C@@H]3C [Compound 6, 3-Deacetyl-3-vinyl-bacteriopurpurin-18-N-hexylimide Propylester]
- Tumor Response (%) (RIF tumor [2]; [4]): did not produce any PDT efficacy; also recorded: NO RESPONSE

Molecule: CCCCCCCOC(C)c1c(C)c2cc3nc(c4c5[nH]c(cc6nc(cc1[nH]2)[C@H](C)[C@H]6CC)c(C)c5C(=O)N(CCCCCC)C4=O)[C@@H](CCC(=O)OCCC)[C@@H]3C (stereo partly shown) [Compound 7, 3-Deacetyl-3-(1-heptyloxyethyl)-bacteriopurpurin-N-hexylimide Propyl Ester]
- in vivo stability of fused imide ring system (RIF tumor [3]; 5 day post injection): quite stable in vivo
- tumor uptake (RIF tumor [3]; day 5 versus day 1 post injection, RIF tumor): significantly higher tumor uptake at day 5 than day 1
- mice tumor free on day 90 (RIF tumor [2]; drug dose 0.2 μmol/kg, light dose 175 J/cm^2): four out of six
- mice died after the light treatment (RIF tumor [2]; drug dose 1.0 μmol/kg, light 790 nm, 135 J/cm^2): 6/6
- Tumor Response (%) (RIF tumor [2]; injected dose 0.2 μmol/kg, light 790 nm 135J/cm^2 24 h post injection): did not show any PDT efficacy; also recorded: NO RESPONSE
- Tumor Response (%) Day 7 (RIF tumor [2]; [5]): 100%
- Tumor Response (%) Day 21 (RIF tumor [2]; [5]): 70%
- Tumor Response (%) Day 90 (RIF tumor [2]; [5]): 70%
- Tumor Response (%) Day 7 (RIF tumor [2]; [6]): 80%
- Tumor Response (%) Day 21 (RIF tumor [2]; [6]): 80%
- Tumor Response (%) Day 90 (RIF tumor [2]; [6]): 60%
- Tumor Response (%) (RIF tumor [2]; [4]): ALL MICE DIED
- foot response phototoxicity (mouse foot tissue): did not show any toxicity
